In US12295936B2, “Immunomodulating urea azalides” (Zoetis Services LLC, priority 2020, dated 2025) one finds MIC data, which are given here for twelve compounds.

The test has as its system BRD pathogens, M. haemolytica and P. multocida. Put plainly: MIC screening panel of BRD pathogens (antibacterial / non-antibacterial). Conditions: read-out: antibacterial / non-antibacterial (MIC for the BRD pathogens).

As to `CC[C@H]1OC(=O)[C@H](C)[C@@H](O)[C@H](C)[C@@H](O[C@@H]2O[C@H](C)C[C@H](N(C)C(=O)N(C)c3ccccc3)[C@H]2O)[C@](C)(O)C[C@@H](C)CN[C@H](C)[C@@H](O)[C@]1(C)O` [Example A-26, 1-((2S,3R,4S,6R)-2-(((2R,3S,4R,5R,8R,10R,11R,12S,13S,14R)-2-ethyl-3,4,10,13-tetrahydroxy-3,5,8,10,12,14-hexamethyl-15-oxo-1-oxa-6-azacyclopentadecan-11-yl)oxy)-3-hydroxy-6-methyltetrahydro-2H-pyran-4-yl)-1,3-dimethyl-3-phenylurea], the MIC was more than 64 µg/mL.
For `CC[C@H]1OC(=O)[C@H](C)[C@@H](O[C@H]2C[C@@](C)(OC)[C@@H](O)[C@H](C)O2)[C@H](C)[C@@H](O[C@@H]2O[C@H](C)C[C@H](N(C)C(=O)NC3CCCCC3)[C@H]2O)[C@](C)(O)C[C@@H](C)CN(C)[C@H](C)[C@@H](O)[C@]1(C)O` [Example B-10, 3-cyclohexyl-1-((2S,3R,4S,6R)-2-(((2R,3S,4R,5R,8R,10R,11R,12S,13S,14R)-2-ethyl-3,4,10-trihydroxy-13-(((2R,4R,5S,6S)-5-hydroxy-4-methoxy-4,6-dimethyltetrahydro-2H-pyran-2-yl)oxy)-3,5,6,8,10,12,14-heptamethyl-15-oxo-1-oxa-6-azacyclopentadecan-11-yl)oxy)-3-hydroxy-6-methyltetrahydro-2H-pyran-4-yl)-1-methylurea], the MIC is more than 64 µg/mL.
In the case of `CC[C@H]1OC(=O)[C@H](C)[C@@H](O[C@H]2C[C@@](C)(OC)[C@@H](O)[C@H](C)O2)[C@H](C)[C@@H](O[C@@H]2O[C@H](C)C[C@H](N(C)C(=O)NC(C)(C)C)[C@H]2O)[C@](C)(O)C[C@@H](C)CN(C)[C@H](C)[C@@H](O)[C@]1(C)O` [Example B-11, 3-(tert-butyl)-1-((2S,3R,4S,6R)-2-(((2R,3S,4R,5R,8R,10R,11R,12S,13S,14R)-2-ethyl-3,4,10-trihydroxy-13-(((2R,4R,5S,6S)-5-hydroxy-4-methoxy-4,6-dimethyltetrahydro-2H-pyran-2-yl)oxy)-3,5,6,8,10,12,14-heptamethyl-15-oxo-1-oxa-6-azacyclopentadecan-11-yl)oxy)-3-hydroxy-6-methyltetrahydro-2H-pyran-4-yl)-1-methylurea], the MIC was more than 64 µg/mL.
For `CC[C@H]1OC(=O)[C@H](C)[C@@H](O[C@H]2C[C@@](C)(OC)[C@@H](O)[C@H](C)O2)[C@H](C)[C@@H](O[C@@H]2O[C@H](C)C[C@H](N(C)C(=O)Nc3ccc(C#N)cc3)[C@H]2O)[C@](C)(O)C[C@@H](C)CN(C)[C@H](C)[C@@H](O)[C@]1(C)O` [Example B-12, 3-(4-cyanophenyl)-1-((2S,3R,4S,6R)-2-(((2R,3S,4R,5R,8R,10R,11R,12S,13S,14R)-2-ethyl-3,4,10-trihydroxy-13-(((2R,4R,5S,6S)-5-hydroxy-4-methoxy-4,6-dimethyltetrahydro-2H-pyran-2-yl)oxy)-3,5,6,8,10,12,14-heptamethyl-15-oxo-1-oxa-6-azacyclopentadecan-11-yl)oxy)-3-hydroxy-6-methyltetrahydro-2H-pyran-4-yl)-1-methylurea], the MIC is more than 64 µg/mL.
The value for `CCCN1C[C@H](C)C[C@@](C)(O)[C@H](O[C@@H]2O[C@H](C)C[C@H](N(C)C(=O)N(C)c3ccc(C(F)(F)F)cc3)[C@H]2O)[C@@H](C)[C@H](O[C@H]2C[C@@](C)(OC)[C@@H](O)[C@H](C)O2)[C@@H](C)C(=O)O[C@H](CC)[C@@](C)(O)[C@H](O)[C@H]1C` [Example B-14, 1-((2S,3R,4S,6R)-2-(((2R,3S,4R,5R,8R,10R,11R,12S,13S,14R)-2-ethyl-3,4,10-trihydroxy-13-(((2R,4R,5S,6S)-5-hydroxy-4-methoxy-4,6-dimethyltetrahydro-2H-pyran-2-yl)oxy)-3,5,8,10,12,14-hexamethyl-15-oxo-6-propyl-1-oxa-6-azacyclopentadecan-11-yl)oxy)-3-hydroxy-6-methyltetrahydro-2H-pyran-4-yl)-1,3-dimethyl-3-(4-(trifluoromethyl)phenyl)urea] was more than 64 µg/mL; that for `CCCN1C[C@H](C)C[C@@](C)(O)[C@H](O[C@@H]2O[C@H](C)C[C@H](N(C)C(=O)N(C)c3ccccc3)[C@H]2O)[C@@H](C)[C@H](O[C@H]2C[C@@](C)(OC)[C@@H](O)[C@H](C)O2)[C@@H](C)C(=O)O[C@H](CC)[C@@](C)(O)[C@H](O)[C@H]1C` [Example B-15, 1-((2S,3R,4S,6R)-2-(((2R,3S,4R,5R,8R,10R,11R,12S,13S,14R)-2-ethyl-3,4,10-trihydroxy-13-(((2R,4R,5S,6S)-5-hydroxy-4-methoxy-4,6-dimethyltetrahydro-2H-pyran-2-yl)oxy)-3,5,8,10,12,14-hexamethyl-15-oxo-6-propyl-1-oxa-6-azacyclopentadecan-11-yl)oxy)-3-hydroxy-6-methyltetrahydro-2H-pyran-4-yl)-1,3-dimethyl-3-phenylurea] was more than 64 µg/mL; that for `CCOC[C@]1(O)[C@H](C)O[C@@H](O[C@H]2[C@H](C)[C@@H](O[C@@H]3O[C@H](C)C[C@H](N(C)C(=O)Nc4ccccc4)[C@H]3O)[C@](C)(O)C[C@@H](C)CN[C@H](C)[C@@H](O)[C@](C)(O)[C@@H](CC)OC(=O)[C@@H]2C)C[C@@]1(C)OC` [Example C-1, 1-((2S,3R,4S,6R)-2-(((2R,3S,4R,5R,8R,10R,11R,12S,13S,14R)-13-(((2R,4R,5S,6S)-5-(ethoxymethyl)-5-hydroxy-4-methoxy-4,6-dimethyltetrahydro-2H-pyran-2-yl)oxy)-2-ethyl-3,4,10-trihydroxy-3,5,8,10,12,14-hexamethyl-15-oxo-1-oxa-6-azacyclopentadecan-11-yl)oxy)-3-hydroxy-6-methyltetrahydro-2H-pyran-4-yl)-1-methyl-3-phenylurea] was more than 64 µg/mL.
With `CCOC[C@]1(O)[C@H](C)O[C@@H](O[C@H]2[C@H](C)[C@@H](O[C@@H]3O[C@H](C)C[C@H](N(C)C(=O)N(C)c4ccc(C(F)(F)F)cc4)[C@H]3O)[C@](C)(O)C[C@@H](C)CN[C@H](C)[C@@H](O)[C@](C)(O)[C@@H](CC)OC(=O)[C@@H]2C)C[C@@]1(C)OC` [Example C-3, 1-((2S,3R,4S,6R)-2-(((2R,3S,4R,5R,8R,10R,11R,12S,13S,14R)-13-(((2R,4R,5S,6S)-5-(ethoxymethyl)-5-hydroxy-4-methoxy-4,6-dimethyltetrahydro-2H-pyran-2-yl)oxy)-2-ethyl-3,4,10-trihydroxy-3,5,8,10,12,14-hexamethyl-15-oxo-1-oxa-6-azacyclopentadecan-11-yl)oxy)-3-hydroxy-6-methyltetrahydro-2H-pyran-4-yl)-1,3-dimethyl-3-(4-(trifluoromethyl)phenyl)urea] the figure was more than 64 µg/mL; with `CC[C@H]1OC(=O)[C@H](C)[C@@H](O[C@H]2C[C@@](C)(OC)[C@](O)(CCl)[C@H](C)O2)[C@H](C)[C@@H](O[C@@H]2O[C@H](C)C[C@H](N(C)C(=O)Nc3ccccc3)[C@H]2O)[C@](C)(O)C[C@@H](C)CN[C@H](C)[C@@H](O)[C@]1(C)O` [Example E-1, 1-((2S,3R,4S,6R)-2-(((2R,3S,4R,5R,8R,10R,11R,12S,13S,14R)-13-(((2R,4R,5S,6S)-5-(chloromethyl)-5-hydroxy-4-methoxy-4,6-dimethyltetrahydro-2H-pyran-2-yl)oxy)-2-ethyl-3,4,10-trihydroxy-3,5,8,10,12,14-hexamethyl-15-oxo-1-oxa-6-azacyclopentadecan-11-yl)oxy)-3-hydroxy-6-methyltetrahydro-2H-pyran-4-yl)-1-methyl-3-phenylurea], more than 64 µg/mL.
Regarding `CC[C@H]1OC(=O)[C@H](C)[C@@H](O[C@H]2C[C@@](C)(OC)[C@](O)(CN=[N+]=[N-])[C@H](C)O2)[C@H](C)[C@@H](O[C@@H]2O[C@H](C)C[C@H](N(C)C(=O)Nc3ccccc3)[C@H]2O)[C@](C)(O)C[C@@H](C)CN[C@H](C)[C@@H](O)[C@]1(C)O` [Example F-1, 1-((2S,3R,4S,6R)-2-(((2R,3S,4R,5R,8R,10R,11R,12S,13S,14R)-13-(((2R,4R,5S,6S)-5-(azidomethyl)-5-hydroxy-4-methoxy-4,6-dimethyltetrahydro-2H-pyran-2-yl)oxy)-2-ethyl-3,4,10-trihydroxy-3,5,8,10,12,14-hexamethyl-15-oxo-1-oxa-6-azacyclopentadecan-11-yl)oxy)-3-hydroxy-6-methyltetrahydro-2H-pyran-4-yl)-1-methyl-3-phenylurea], the MIC was more than 64 µg/mL.
With `CC[C@H]1OC(=O)[C@H](C)[C@@H](O[C@H]2C[C@@](C)(OC)[C@](O)(CC#N)[C@H](C)O2)[C@H](C)[C@@H](O[C@@H]2O[C@H](C)C[C@H](N(C)C(=O)Nc3ccccc3)[C@H]2O)[C@](C)(O)C[C@@H](C)CN[C@H](C)[C@@H](O)[C@]1(C)O` [Example G-1, 1-((2S,3R,4S,6R)-2-(((2R,3S,4R,5R,8R,10R,11R,12S,13S,14R)-13-(((2R,4R,5S,6S)-5-(cyanomethyl)-5-hydroxy-4-methoxy-4,6-dimethyltetrahydro-2H-pyran-2-yl)oxy)-2-ethyl-3,4,10-trihydroxy-3,5,8,10,12,14-hexamethyl-15-oxo-1-oxa-6-azacyclopentadecan-11-yl)oxy)-3-hydroxy-6-methyltetrahydro-2H-pyran-4-yl)-1-methyl-3-phenylurea] the figure was more than 64 µg/mL; with `CC[C@H]1OC(=O)[C@H](C)[C@@H](O[C@H]2C[C@@](C)(OC)[C@](O)(CC#N)[C@H](C)O2)[C@H](C)[C@@H](O[C@@H]2O[C@H](C)C[C@H](N(C)C(=O)N(C)c3ccc(C(F)(F)F)cc3)[C@H]2O)[C@](C)(O)C[C@@H](C)CN[C@H](C)[C@@H](O)[C@]1(C)O` [Example G-3, 1-((2S,3R,4S,6R)-2-(((2R,3S,4R,5R,8R,10R,11R,12S,13S,14R)-13-(((2R,4R,5S,6S)-5-(cyanomethyl)-5-hydroxy-4-methoxy-4,6-dimethyltetrahydro-2H-pyran-2-yl)oxy)-2-ethyl-3,4,10-trihydroxy-3,5,8,10,12,14-hexamethyl-15-oxo-1-oxa-6-azacyclopentadecan-11-yl)oxy)-3-hydroxy-6-methyltetrahydro-2H-pyran-4-yl)-1,3-dimethyl-3-(4-(trifluoromethyl)phenyl)urea], more than 64 µg/mL.
